# What was measured:
# Format in all cases: cell-based, mouse
# [1] = system: Atoh1-nGFP cells; test: Hair cell differentiation of LCP organoids, FACS for Atoh1-nGFP cells; conditions: 10 days of differentiation (D10), standard differentiation treatment (CHIR99021 and LY411575) without or with pargyline
# Description: Differentiation of LCPs into a hair cell lineage. […] To analyze the effect of the Lsd1 inhibitors, the LCPs were treated with the small molecules combined with a differentiation drug cocktail, pargyline and CHIR99021 or CHIR99021 at 1, 2, 4, and 10 days (McLean et al., 2017).
# For the drug screening experiments, the expanded cells were passaged into a 96 well plate to test varying drug combinations. All experiments were done in triplicate at minimum. Atoh1-nGFP cells were quantified after 10 days in culture. The cell colonies were incubated in Cell Recovery Solution for 1 hour and dissociated into single cells using TrypleE. The total cell number and percentage of GFP+ cells were quantified using fluorescence activated cell sorting (FACS).
# We next tested the effect of Lsd1 inhibition on hair cell differentiation. In this assay, after the cells were expanded into organoids during the initial proliferation phase, differentiation was initiated using the combination of CHIR99021 and LY411575 and allowed to progress for 10 days (DO to D10). Organoids were monitored for the development of hair cells using FACS and qRT-PCR. […] Conversely, Myo7a expression increases throughout development and is a key marker of mature hair cells. All hair cell markers tested were elevated with the exception of Atoh1, which had begun to decrease 10 days after the initiation of differentiation.
# [2] = system: Tcf/Lef; test: Tcf/Lef luciferase reporter assay of Wnt activity in inner ear organoids; conditions: addition of pargyline to CHIR99021 or LYCH; luciferase at 48 hours
# Description: Luciferase assay. Wnt activity was assessed in inner ear organoids using lentiviral vector expressing Firefly luciferase under the control of 7 Tcf binding sites (Fuerer and Nusse, 2010). Cochlear progenitor cells were dissected from sensory epithelia of wild-type neonatal mice using the established protocol described above (McLean et al., 2017). Dissociated cells were resuspended in proliferation media contain poly brene (Sigma) and lentivirus reporter (7TFC, Addgene #24307) and plated in 96 well plate coated with matrigel for 12-16 hours, [adapted from (Maru et al., 2016)]. The following day, media (containing dead cells and virus) was aspirated and a top layer of matrigel applied to the adherent cells and allowed to solidify, followed by addition of proliferation media. Media was changed every 2 days for 10 days as organoids developed. At day 10, media was changed to differentiation conditions with removal of growth factors and treatment with drug combinations described above. […] Luciferase was measured at 48 hours and normalized to total protein concentration.
# Active canonical Wnt signaling is facilitated by the nuclear translocation of β-catenin, which binds with transcription factors of the Tcf/Lef family to activate transcription. […] We also analyzed Wnt activity in the treated cells using a Tcf/Lef reporter assay.
# [3] = system: Atoh1 locus; test: Chromatin immunoprecipitation (ChIP-qPCR) of histone marks on the Atoh1 gene in LCPs
# Description: Chromatin immunoprecipitation. The colonies were treated with Cell Recovery solution for up to 2 hours and TrypleE for 30 minutes. The cells were fixed with 1% formaldehyde for 30 minutes at room temperature before termination with 0.1M Glycine. The cells were treated with lysis buffer (0.5M EDTA and 0.05% Triton-X 100) for 30 minutes on ice and then with nuclear extraction buffer (0.5M EDTA, 20% SDS, 1M Tris-HCl, pH 8) for 10 minutes. The cross-linked chromatin was sonicated for 30 minutes (30×30 seconds with 30 second intervals) and shearing quality confirmed by running 10 ul of the sample on a 1% agarose gel. The input sample used was 5% of the total chromatin. Lo-bind tubes containing Dyna-A and Dyna-B beads in PBS-BSA were incubated with 3 μg of Primary antibody for 6 hours-overnight with rotation at 4° C. The antibodies used were as follows H3K4me (ab8895: Abcam), H3K4me2 (ab77661: Abcam), H3K9me2 (ab1220; Abcam) and Lsd1 (ab17721: Abcam). The chromatin samples were treated with dilution buffer (1% Triton-X 100, 0.5M EDTA, 5M NaCl, 1M Tris-HCl, pH 8 and 1% Protease inhibitors×100) and incubated with the prepared beads for 6 hours-overnight. The beads were captured on a magnetic rack, washed with ChIP RIPA buffer (1M Hepes, 0.5M EDTA, 10% Na-deoxycholate, NP-40 and 5M LiCl: 6×10 minute washes), TE buffer (1M Tris-HCl and 0.5M EDTA: 2×10 minute washes), resuspended in reverse crosslinking solution (0.5M NaHCO3 and 20% SDS) and incubated overnight at 65° C. DNA was recovered using the Active motif DNA extraction kit (58002: Active Motif). RT-qPCR analyses were performed on immunoprecipitated DNA using specific primers described in Table 2. The results were calculated and presented as relative fold enrichment over the input.
# In order to further dissect the mechanism of Lsd1 activity, we analyzed changes in epigenetic marks on several sites along the Atoh1 gene using chromatin immunoprecipitation. We used the LCPs starting at day 0 (D0) of differentiation with day 10 (D10) as the endpoint (FIG. 5A). Lsd1 has been characterized to demethylate the activating epigenetic marks H3K4me and H3K4me2 (Shi et al., 2004). […] Consistently, we observed accumulation of the activating H3K4me2 mark at the proximal promoter region (region 2) of the Atoh1 gene during hair cell differentiation (D10, p<0.05*: FIG. 5B). […] In addition, we examined the enrichment levels of H3K4me around the Atoh1 locus. […] Collectively, these findings reveal that Lsd1 inhibition increases accumulation of activating epigenetic marks, thereby facilitating the opening of the chromatin and activating transcription of the Atoh1 gene.
# As Lsd1 is also known to demethylate H3K9me2, we analyzed the changes in the levels of this repressive mark at the Atoh1 locus (Metzger et al., 2005).
# [4] = system: LCP organoids; test: Immunostaining of differentiated organoids for Atoh1 and Myo7a
# Excerpt: Immunochemistry. […] Nuclei were visualized using DAPI (Vector Laboratories).
compound,measurement,setting,value
"C#CCN(C)Cc1ccccc1 [pargyline, N-Methyl-N-propargylbenzylamine]",percentage of Atoh1-nGFP cells in culture,[1],39%
same,Tcf/Lef activity,[2],no significant difference
same,levels of H3K4me2 at the enhancer regions (region 5) of Atoh1,[3]; D10 with pargyline,not statistically significant
same,level of H3K4me2 at the proximal promoter region (region 2) of Atoh1,"[3]; D10 with pargyline compared to D0, p<0.01",significantly increased
same,enrichment for H3K9me2 on the Atoh1 gene,[3]; addition of pargyline,did not significantly alter
same,H3K4me mark at the enhancer region (region 5) of Atoh1,"[3]; after pargyline treatment, p<0.01",significant enrichment
same,immunostaining for Atoh1 and Myo7a,[4],almost uniformly positive
